Test results published in patent US20190054054A1, “Methods reducing or preventing oxidation of high density lipoprotein (HDL)” (Amarin Pharmaceuticals Ireland Limited, priority 2017, published 2019).
“Also recorded” adds a separate entry of the source.

Tests used:
[1] = patients; clinical studies by others; cited from earlier work
human HDL = experiment: Copper-induced oxidation of human HDL, TBARS/MDA (Example 14); format: biochemical
Procedure: LDL and sdLDL subfractions (0.6 mL each) were incubated with either 10 μL vehicle (ethanol) or 10 μL drug stock solution for 30 min to 1 hr at 37° C. Oxidation was initiated by the addition of 10 μM CuSO4. After 2 hr, 100 μL aliquots were removed from each subfraction and combined with 1.0 mL thiobarbituric acid (0.5%), 10 μL trichloroacetic acid (5%), 10 μL BHT (5 mg/mL in methanol), and 10 μL EDTA (5 mM). Sample aliquots were incubated at 100° C. for 20 min and then assayed for the formation of thiobarbituric acid-reactive substances (TBARS), which have a molar absorptivity (c) value of 1.56×10^5 M^−1 cm^−1 at 532 nm and are derived principally from the reaction of thiobarbituric acid with malondialdehyde (MDA), a reactive aldehyde produced by LDL oxidation. Sample TBARS concentrations were determined spectrophotometrically by measuring sample absorbances against a standard curve derived from the hydrolysis of 1,1,3,3-tetramethoxypropane.
A study was performed to test whether EPA, DHA or EPA/DHA have antioxidant effects on high density lipoprotein. HDL was isolated from human plasma by iodixanol gradient ultracentrifugation and adjusted to a final apolipoprotein (apoA1) concentration of 10 mg/mL. Isolated HDL was separated into test samples of 200 μg/mL […] (based on ApoA1), and incubated at 37° C. in the absence (vehicle) or presence of EPA and/or DHA; 5.0 or […] each. Samples were then subjected to copper-induced oxidation (10 μM CuSO4) and, at different time points up to 14 hours, aliquots were removed from each sample and formation of TBARS was determined as explained above in Example 6.

[2] = 5 μM (combination: 5 μM each), 6 h

## CC/C=C\C/C=C\C/C=C\C/C=C\C/C=C\CCCC(=O)O [EPA, cis-5,8,11,14,17-eicosapentaenoic acid]
[1]
  triglycerides and oxidized LDL, Lp-PLA2, hsCRP as compared to placebo: significant reductions in levels of oxidized LDL, Lp-PLA2, and hsCRP; also recorded: significant reductions in triglycerides along with reduced levels of markers of inflammation
Human HDL; [2]
  MDA formation: 1.03 ± 0.10 µM
  inhibition of HDL oxidation (antioxidant activity): 81%
Human HDL; 10 μM, 1.0 hr, 10 μM CuSO4
  MDA formation: 0.384 ± 0.097 µM
  inhibition of HDL oxidation: 92%
Human HDL; 10 μM, 4 h
  MDA formation: 0.622 ± 0.066 µM
  inhibition of HDL oxidation: 89%
Human HDL; 10 μM, 14 h
  MDA formation: 2.01 ± 0.10 µM
  inhibition of HDL oxidation vs. vehicle: 64%
